Data: PubChem BioAssay AID1918994 (Molecular Pharmacology Branch, DTP, NCI, 2023)

Tested on: 292921-168-R-J2-PDC complex spheroid growth
Test: Anticancer human tumor 292921-168-R-J2-PDC patient-derived pancreatic carcinoma cell line growth inhibition [AhR]
Details: for IC50: curve of first compound; for viability, T/C: stronger effect = lower value; active means viability on the fitted dose curve at most 10% of control; inactive means the rest
Procedure, shortened: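 Complex tumor spheroids co-cultured with HUVEC and human MSC stroma; AhR antagonists tested in combination with standard-of-care and investigational agents. Top concentration at or near clinical Cmax (else 10 microM), half-log dilutions; growth expressed as percent test/control.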

[1] = second compound 0.1 µM, first compound 0.0316 µM
[2] = second compound 0.1 µM, first compound 0.1 µM
[3] = second compound 0.316 µM, first compound 0.0316 µM
[4] = second compound 0.316 µM, first compound 0.1 µM
[5] = second compound 1 µM, first compound 0.0316 µM
[6] = second compound 1 µM, first compound 0.1 µM
[7] = second compound 3.16 µM, first compound 0.0316 µM
[8] = second compound 3.16 µM, first compound 0.1 µM
[9] = second compound 10 µM, first compound 0.0316 µM
[10] = second compound 10 µM, first compound 0.1 µM
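Further: spheroids exposed to compounds for seven days after three days of growth.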

Cn1ncnc1C1c2n[nH]c(=O)c3cc(F)cc(c23)NC1c1ccc(F)cc1 (stereo not given) + Cc1ccccc1N=Nc1ccc(NC(=O)c2ccnn2C)c(C)c1
inactive: viability, T/C (second compound 0.1 µM, first compound 0.000316 µM) 96.1% | viability, T/C (second compound 0.1 µM, first compound 0.001 µM) 83% | viability, T/C (second compound 0.1 µM, first compound 0.00316 µM) 83.2% | viability, T/C (second compound 0.1 µM, first compound 0.01 µM) 85.7% | viability, T/C [1] 87.8% | viability, T/C [2] 82.6% | viability, T/C (second compound 0.316 µM, first compound 0.000316 µM) 90.9% | viability, T/C (second compound 0.316 µM, first compound 0.001 µM) 76.6% | viability, T/C (second compound 0.316 µM, first compound 0.00316 µM) 86.4% | viability, T/C (second compound 0.316 µM, first compound 0.01 µM) 74.8% | viability, T/C [3] 73.8% | viability, T/C [4] 86.2% | viability, T/C (second compound 1 µM, first compound 0.000316 µM) 78.6% | viability, T/C (second compound 1 µM, first compound 0.001 µM) 81% | viability, T/C (second compound 1 µM, first compound 0.00316 µM) 80.3% | viability, T/C (second compound 1 µM, first compound 0.01 µM) 81.3% | viability, T/C [5] 87.8% | viability, T/C [6] 74.1% | viability, T/C (second compound 3.16 µM, first compound 0.000316 µM) 80.9% | viability, T/C (second compound 3.16 µM, first compound 0.001 µM) 76.2% | viability, T/C (second compound 3.16 µM, first compound 0.00316 µM) 76.3% | viability, T/C (second compound 3.16 µM, first compound 0.01 µM) 75.1% | viability, T/C [7] 72.5% | viability, T/C [8] 59.6% | viability, T/C (second compound 10 µM, first compound 0.000316 µM) 64% | viability, T/C (second compound 10 µM, first compound 0.001 µM) 68.5% | viability, T/C (second compound 10 µM, first compound 0.00316 µM) 51.8% | viability, T/C (second compound 10 µM, first compound 0.01 µM) 61.7% | viability, T/C [9] 53.3% | viability, T/C [10] 52.8%
> 100 nM: IC50 (second compound 0.1 µM) | IC50 (second compound 0.316 µM) | IC50 (second compound 1 µM) | IC50 (second compound 3.16 µM) | IC50 (second compound 10 µM)

NS(=O)(=O)OCC1CC(n2ccc3c(NC4CCc5ccccc54)ncnc32)CC1O (stereo not given) + Cc1ccccc1N=Nc1ccc(NC(=O)c2ccnn2C)c(C)c1
161 nM: IC50 (second compound 1 µM)
138 nM: IC50 (second compound 3.16 µM)
168 nM: IC50 (second compound 0.316 µM)
inactive: viability, T/C [1] 122% | viability, T/C [2] 88.3% | viability, T/C (second compound 0.1 µM, first compound 0.316 µM) 19.3% | viability, T/C [3] 128% | viability, T/C [4] 77.9% | viability, T/C (second compound 0.316 µM, first compound 0.316 µM) 15.7% | viability, T/C [5] 111% | viability, T/C [6] 73.6% | viability, T/C (second compound 1 µM, first compound 0.316 µM) 16.2% | viability, T/C [7] 100% | viability, T/C [8] 64% | viability, T/C (second compound 3.16 µM, first compound 0.316 µM) 13.8% | viability, T/C [9] 88.9% | viability, T/C [10] 55.2% | viability, T/C (second compound 10 µM, first compound 0.316 µM) 13.7%
115 nM: IC50 (second compound 10 µM)
189 nM: IC50 (second compound 0.1 µM)
active: viability, T/C (second compound 0.1 µM, first compound 1 µM) 4.4% | viability, T/C (second compound 0.1 µM, first compound 3.16 µM) 3.09% | viability, T/C (second compound 0.1 µM, first compound 10 µM) 2.81% | viability, T/C (second compound 0.316 µM, first compound 1 µM) 4.5% | viability, T/C (second compound 0.316 µM, first compound 3.16 µM) 4.78% | viability, T/C (second compound 0.316 µM, first compound 10 µM) 3.59% | viability, T/C (second compound 1 µM, first compound 1 µM) 6.04% | viability, T/C (second compound 1 µM, first compound 3.16 µM) 3.96% | viability, T/C (second compound 1 µM, first compound 10 µM) 5.05% | viability, T/C (second compound 3.16 µM, first compound 1 µM) 4.58% | viability, T/C (second compound 3.16 µM, first compound 3.16 µM) 8.31% | viability, T/C (second compound 3.16 µM, first compound 10 µM) 2.91% | viability, T/C (second compound 10 µM, first compound 1 µM) 5.55% | viability, T/C (second compound 10 µM, first compound 3.16 µM) 3.67% | viability, T/C (second compound 10 µM, first compound 10 µM) 2.58%

Nc1ncn(C2CC(O)C(CO)S2)c(=O)n1 (stereo not given) + Cc1ccccc1N=Nc1ccc(NC(=O)c2ccnn2C)c(C)c1
> 300 nM: IC50 (second compound 0.1 µM) | IC50 (second compound 0.316 µM) | IC50 (second compound 1 µM) | IC50 (second compound 3.16 µM) | IC50 (second compound 10 µM)
inactive: viability, T/C (second compound 0.1 µM, first compound 0.000949 µM) 96.1% | viability, T/C (second compound 0.1 µM, first compound 0.003 µM) 91.2% | viability, T/C (second compound 0.1 µM, first compound 0.00949 µM) 86.3% | viability, T/C (second compound 0.1 µM, first compound 0.03 µM) 93% | viability, T/C (second compound 0.1 µM, first compound 0.0949 µM) 91.1% | viability, T/C (second compound 0.1 µM, first compound 0.3 µM) 77.5% | viability, T/C (second compound 0.316 µM, first compound 0.000949 µM) 87.6% | viability, T/C (second compound 0.316 µM, first compound 0.003 µM) 92.3% | viability, T/C (second compound 0.316 µM, first compound 0.00949 µM) 93.3% | viability, T/C (second compound 0.316 µM, first compound 0.03 µM) 81.5% | viability, T/C (second compound 0.316 µM, first compound 0.0949 µM) 82.6% | viability, T/C (second compound 0.316 µM, first compound 0.3 µM) 76.6% | viability, T/C (second compound 1 µM, first compound 0.000949 µM) 83.6% | viability, T/C (second compound 1 µM, first compound 0.003 µM) 85% | viability, T/C (second compound 1 µM, first compound 0.00949 µM) 80.7% | viability, T/C (second compound 1 µM, first compound 0.03 µM) 83.8% | viability, T/C (second compound 1 µM, first compound 0.0949 µM) 90% | viability, T/C (second compound 1 µM, first compound 0.3 µM) 78.5% | viability, T/C (second compound 3.16 µM, first compound 0.000949 µM) 68.6% | viability, T/C (second compound 3.16 µM, first compound 0.003 µM) 66.1% | viability, T/C (second compound 3.16 µM, first compound 0.00949 µM) 72.4% | viability, T/C (second compound 3.16 µM, first compound 0.03 µM) 79.9% | viability, T/C (second compound 3.16 µM, first compound 0.0949 µM) 82.2% | viability, T/C (second compound 3.16 µM, first compound 0.3 µM) 64.1% | viability, T/C (second compound 10 µM, first compound 0.000949 µM) 64% | viability, T/C (second compound 10 µM, first compound 0.003 µM) 56.1% | viability, T/C (second compound 10 µM, first compound 0.00949 µM) 59% | viability, T/C (second compound 10 µM, first compound 0.03 µM) 62.7% | viability, T/C (second compound 10 µM, first compound 0.0949 µM) 61.6% | viability, T/C (second compound 10 µM, first compound 0.3 µM) 57.1%
